Among the data in publication PMC5408782, “Engineering bacterial thiosulfate and tetrathionate sensors for detecting gut inflammation” (Molecular Systems Biology, 2017) are IC50 and EC50 values, retold here.

The target in assay [1] is T1, ThsSR (ThsS/R; Shal_3128/9) (Shewanella halifaxensis, UniProt B0TQ83).
T1 construct: E. coli codon-optimised ThsS (pKD182, IPTG-inducible) and ThsR (pKD184, aTc-inducible) in E. coli BW28357; PphsA342-sfGFP reporter; membrane histidine kinase with PhnD-like periplasmic sensor domain; with Thiosulfate response regulator ThsR
T1 sequence (B0TQ83 1-594): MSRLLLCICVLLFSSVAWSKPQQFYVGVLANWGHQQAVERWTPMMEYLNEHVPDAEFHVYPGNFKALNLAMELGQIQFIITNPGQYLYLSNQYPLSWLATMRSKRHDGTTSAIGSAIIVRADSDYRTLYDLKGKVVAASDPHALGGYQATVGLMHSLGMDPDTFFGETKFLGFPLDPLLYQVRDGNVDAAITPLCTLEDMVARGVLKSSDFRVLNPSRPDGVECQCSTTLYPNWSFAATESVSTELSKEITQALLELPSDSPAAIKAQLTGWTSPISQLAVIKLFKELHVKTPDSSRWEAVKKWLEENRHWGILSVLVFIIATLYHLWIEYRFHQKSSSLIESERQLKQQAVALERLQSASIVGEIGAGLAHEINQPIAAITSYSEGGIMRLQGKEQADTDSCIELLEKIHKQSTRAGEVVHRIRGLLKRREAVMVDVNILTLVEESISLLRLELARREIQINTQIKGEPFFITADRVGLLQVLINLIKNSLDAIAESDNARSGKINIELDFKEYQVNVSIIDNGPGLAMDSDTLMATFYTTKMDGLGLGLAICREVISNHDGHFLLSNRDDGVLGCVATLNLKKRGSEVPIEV
Kind of assay: sfGFP reporter, flow cytometry, repression transfer function. The class given is cell-based. To be noted: read-out: half-maximal inhibition. For orientation: Flow cytometry measures light scatter and fluorescence of single cells or particles in a stream.

The subject of assay [2] is T2, S. baltica TtrSR (Sbal195_3859/8).
T2 construct: gene ttrS; E. coli codon-optimised TtrS (pKD227, IPTG-inducible) and TtrR (pKD226, aTc-inducible) in E. coli BW28357; PttrB185-269-sfGFP reporter; with Tetrathionate response regulator TtrR
Kind of assay: sfGFP reporter, flow cytometry, Hill fit. The class given is cell-based, Shewanella baltica. The settings on record: E. coli BW28357, aerobic, M9 + glycerol, 37°C, 10 μM IPTG; PttrB185-269 reporter; activation; read-out: k 1/2.

For assay [3], the target named is T1, ThsSR (ThsS/R; Shal_3128/9). Kind of assay: sfGFP reporter, flow cytometry, Hill fit. Format: cell-based. To be noted: read-out: k 1/2.

For the compound `O=S(O)O` [sulfite], the IC50 in assay [1] came to 390 ± 10 µM.
Consider `O=S(=O)(O)SSS(=O)(=O)O` [tetrathionate], for which the EC50 in assay [2] was found to be 50 ± 3 µM. For the same compound, in assay [1], the IC50 worked out at 550 ± 20 µM.
With `O=S(O)(O)=S` [thiosulfate], the EC50 in assay [3] was 280 ± 10 µM.
